Experimental data as given in patent US4260608A, “Maytansinoids, pharmaceutical compositions thereof and methods of use thereof” (Takeda Chemical Industries, Ltd., priority 1978, dated 1981).
≈ marks a conversion by molar mass, not a printed value. Read-outs that look alike come from different tables or passages of the source.

How the values were obtained:
[1] = test system: melanoma B-16 tumor cells; test: Antitumor activity, life span prolongation in mice transplanted intraperitoneally with melanoma B-16; assay type: in vivo; conditions: intraperitoneal, once daily for 9 consecutive days
Description: Therapeutic tests were carried out in mice according to NCI-protocol 1,300, Cancer Chemother, Reports, Part 3, 1972, Vol. 3, No. 2, in which melanoma B-16 tumor cells had been intraperitoneally transplanted, compound (I) being administered intraperitoneally once daily for 9 consecutive days.

Tetrahymena pyriformis W = test: Antiprotozoal activity, growth inhibition by serial dilution method; assay type: cell-based
Description: Antiprotozoal activity of compound (I) was assayed with Tetrahymena pyriformis W as the test organism and a medium composed of 20 g tryptose-peptone (Difco Co.), 1 g yeast extract, 2 g glucose, 1000 ml distilled water, 10 ml 1 M phosphate buffer (pH 7.0) as the assay medium. The microorganism was incubated at 28° C. for 44 to 48 hours and the growth inhibitory activity of compound (I) was assayed by the serial dilution method.

[2] = Tetrahymena pyriformis W, 28° C., 44 to 48 hours, pH 7.0 medium, serial dilution, read-out: Antiprotozoal activity MIC

| Structure (SMILES) | Antitumor activities B-16 (T/C %) ([1]; 25 μg/kg) | Antitumor activities B-16 (T/C %) ([1]; 50 μg/kg) | Antitumor activities B-16 (T/C %) ([1]; 100 μg/kg) | Antitumor activities B-16 (T/C %) ([1]; 200 μg/kg) | MIC (Tetrahymena pyriformis W; [2]) | MIC (Tetrahymena pyriformis W; Tetrahymena pyriformis, pH 7, read-out: Antiprotozoal activity MIC) | Antitumor activities B-16 (T/C %) ([1]; 12.5 μg/kg) |
| --- | --- | --- | --- | --- | --- | --- | --- |
| COc1cc2cc(c1Cl)N(C)C(=O)CC(OC(=O)[C@H](Cc1ccccc1)N(C)C(C)=O)C1(C)OC1C(C)C1CC(O)(NC(=O)O1)C(OC)C=CC=C(C)C2 (stereo partly shown) | 211% | 208% | 205% | 95% | 1 mg/L (≈ 1.3 µM) |  |  |
| COc1cc2cc(c1Cl)N(C)C(=O)CC(OC(=O)[C@@H](CC(C)C)N(C)C(C)=O)C1(C)OC1C(C)C1CC(O)(NC(=O)O1)C(OC)C=CC=C(C)C2 (stereo partly drawn) [maytansinol 3-(N-acetyl-N-methyl)-D-leucine ester] |  |  |  |  |  | 28 mg/L (≈ 38.1 µM) |  |
| COc1cc2cc(c1Cl)N(C)C(=O)CC(OC(=O)[C@H](CC(C)C)N(C)C(C)=O)C1(C)OC1C(C)C1CC(O)(NC(=O)O1)C(OC)C=CC=C(C)C2 (stereo partly drawn) [maytansinol 3-(N-acetyl-N-methyl)-L-leucine ester] | 171% | 209% | 202% | 65% | 2 mg/L (≈ 2.72 µM) |  |  |
| COc1cc2cc(c1Cl)N(C)C(=O)CC(OC(=O)[C@H](C)N(C)C(=O)c1ccccc1)C1(C)OC1C(C)C1CC(O)(NC(=O)O1)C(OC)C=CC=C(C)C2 (stereo partly drawn) [maytansinol 3-(N-benzoyl-N-methyl)-L-alanine ester] |  |  |  |  | 2 to 4 mg/L (≈ 2.65 to 5.3 µM) |  |  |
| COc1cc2cc(c1Cl)N(C)C(=O)CC(OC(=O)[C@H](Cc1ccccc1)NC(=O)OC(C)(C)C)C1(C)OC1C(C)C1CC(O)(NC(=O)O1)C(OC)C=CC=C(C)C2 (stereo partly drawn) [maytansinol 3-(N-t-butyloxycarbonyl)-L-phenylalanine ester] |  |  |  |  | 4 mg/L (≈ 4.92 µM) |  |  |
| COc1cc2cc(c1Cl)N(C)C(=O)CC(OC(=O)[C@@H](C)N(C)C(=O)OC(C)(C)C)C1(C)OC1C(C)C1CC(O)(NC(=O)O1)C(OC)C=CC=C(C)C2 (stereo partly drawn) [maytansinol 3-(N-tert-butoxycarbonyl-N-methyl)-D-alanine ester] |  |  |  |  | 8 mg/L (≈ 10.7 µM) |  |  |
| COc1cc2cc(c1Cl)N(C)C(=O)CC(OC(=O)[C@H](C)N(C)C(=O)OC(C)(C)C)C1(C)OC1C(C)C1CC(O)(NC(=O)O1)C(OC)C=CC=C(C)C2 (stereo partly drawn) [maytansinol 3-(N-tert-butoxycarbonyl-N-methyl)-L-alanine ester] | 178% | 198% | 193% |  | 0.4 to 0.8 mg/L (≈ 0.533 to 1.07 µM) |  | 163% |
